Measured values published in patent publication US10464977B2 (University of Maryland, Baltimore, priority 2016, dated 2019).
Residues, ends and D or L forms follow the SMILES beside them. No end group written: not given here.

How the values were obtained:
Sap9 [1] = target: T1, Sap9 (Candida albicans, UniProt Q59SU1); conditions: 3.13 μg mL^−1 Sap9
Procedure: (§1) The cleavage sites of the Saps and the abundance of the fragments produced by cleavage were determined using mass spectrometry. […] The binding solution was 0.1% formic acid, and the releasing solution was 0.1% formic acid/60% acetonitrile (ACN). To ensure equal flow-through volume of each sample, 18 μL of desalted sample was aliquoted and 1 μL of the four-amino acid peptide MRFA at 0.1 mg mL^−1 was added. Samples were manually loaded through loop injection at 25 μL min^−1 with 40% ACN/0.1% formic acid. Mass spectra were acquired with a Thermo Scientific Orbitrap Fusion Lumos Tribrid mass spectrometer with data-dependent analysis at a 5 s cycle time. Manufacturer recommended source parameters for a flow rate of 25 μL min^−1 were applied. Full scan mass spectra of m z^−1 350-1550 were acquired in the orbitrap at R=120000 (m z^−1 200) with fluoranthene ion as the internal calibrant. CID and ETD fragments of the most intense ions (z>1) were recorded with the orbitrap at R=60000 (m z^−1 200). Dynamic exclusion was set at 30 s.
(§2) The molecular weights of the peptides and their fragments were calculated from full scan MS spectra using the XTract program in the XCalibur software (Thermo Scientific). MS/MS spectra from ETD and CID fragmentation were processed using Proteome Discoverer (V2.1) with Prosight PD node to identify peptides and their degradation products. […] Intensities of identified peptides and their degradation products relative to the internal standard MRFA were obtained from the deconvoluted full scan mass spectra.
(§3) After incubation of the peptides with each Sap, the four-amino-acid peptide MRFA was added as an internal standard, and samples were directly injected into the mass spectrometer.

Sap2 [2] = target: T2, Sap2 (Candida albicans, UniProt P0DJ06); conditions: 6.25 μg mL^−1 Sap2
T2 sequence (P0DJ06 57-398): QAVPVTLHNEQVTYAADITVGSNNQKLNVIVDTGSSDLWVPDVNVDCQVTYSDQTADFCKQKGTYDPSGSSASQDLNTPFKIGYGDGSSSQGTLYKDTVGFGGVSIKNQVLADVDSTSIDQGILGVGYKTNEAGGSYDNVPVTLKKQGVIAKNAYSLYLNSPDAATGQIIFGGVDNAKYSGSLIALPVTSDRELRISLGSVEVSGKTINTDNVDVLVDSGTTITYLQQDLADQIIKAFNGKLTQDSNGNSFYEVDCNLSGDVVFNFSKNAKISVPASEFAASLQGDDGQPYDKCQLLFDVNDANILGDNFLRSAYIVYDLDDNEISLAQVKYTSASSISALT
Procedure: as §1, §2, §3

Sap9 [3] = target: T1, Sap9; test: in vitro; conditions: for degradation by Sap9 (in words): 3.13 μg mL^−1 Sap9, 150 μg mL^−1 peptide; for degradation by Sap9 (in words) / degradation at higher Sap9 concentration (in words): 2 h, 37° C.; for degradation at higher Sap9 concentration (in words): 6.25 μg mL^−1 Sap9, 150 μg mL^−1 peptide
Procedure: (§4) Experiments were done in 1 mM NaPB. The mixtures were incubated at 37° C. for 2 h, and NaPB with no Sap was used as a control. After the incubation, the samples were mixed with tricine sample buffer (without Coomassie Blue G-250, except in control samples) containing β-mercaptoethanol and boiled for 5 min at 100° C. to inactivate the proteases. The degraded and non-degraded peptides were separated by gel electrophoresis in 10-20% Tris-tricine gels (Bio-Rad), and the gels were then fixed in a 10% acetic acid/40% methanol/50% water mixture for 30 min. The fixed gels were stained with Bio-Safe Coomassie stain (Bio-Rad) for 1 h and washed with fresh water three times, once overnight and then twice for at least 2 h each time. The gels were imaged on a Chemidoc imager (Bio-Rad), and densitometric analysis was done with Image Lab software (Bio-Rad). […] Three replicates of the assay were done.
(§5) To measure the antifungal activity of the peptides following degradation by the Saps, the antifungal activity assay was performed as described above, except the peptides were first exposed to Saps. The peptide fragments were prepared by incubating each peptide (150 μg mL^−1) with 6.25 μg mL^−1 Sap9 or 18 μg mL^−1 Sap2 for 2 h at 37° C. The enzymes were then inactivated by heating at 100° C. for 5 min. As controls, each peptide was also incubated with only NaPB buffer. Samples were then stored at −20° C. until use in the antifungal activity assay.
(§6) The intact peptide was then separated from the degradation products using gel electrophoresis and quantified the level of degradation using densitometric analysis of Coomassie-stained gels.
(§7) To amplify differences in antifungal activity due to degradation by the Saps, the concentrations of the Saps was increased by at least two-fold compared to the concentrations used for the gel electrophoresis data in FIGS. 1A-1D (to 6.25 μg mL^−1 for Sap9 and 18 μg mL^−1 for Sap2).

Sap2 [4] = target: T2, Sap2; test: in vitro
Procedure: as §4, §5, §6, §7

[5] = tested on: C. albicans cells (ATCC 90028); test: Degradation of peptides by whole C. albicans cells, gel densitometry; type: in vitro ADME; conditions: 1×10^9 cells mL^−1, 150 μg mL^−1 peptide, 2 h, 37° C., 100 mM NaPB
Procedure: For degradation with C. albicans, a single colony of the ATCC 90028 strain (American Type Culture Collection) was used to inoculate YPD. The culture was grown overnight, subcultured, and grown to an optical density of 1-1.2 at OD600. All incubations were done at 30° C. The cells were washed three times in 100 mM NaPB and diluted to 2×10^9 cells mL^−1. Equal volumes of cells and peptides were mixed and incubated for 2 h at 37° C. The cells were removed by centrifugation, and the supernatants were mixed with tricine sample buffer and boiled for 10 min. The samples were then run on gels and analyzed as described above for degradation by the Saps. Three biological replicates were performed.
After observing the effect of residue modifications on the cleavage of Hst-5 by the purified recombinant Saps, whether incubation of the peptides with whole C. albicans cells expressing Saps (rather than Saps produced recombinantly) would yield similar results was evaluated. Hst-5 and the synthetic peptides were incubated with C. albicans cells for 2 h at 37° C. in 100 mM NaPB. The high ionic strength of this buffer prevents internalization of the peptides by C. albicans (4) allowing analysis of degradation of the peptides without the confounding effects of peptide internalization, which would reduce the amount of peptide in the reaction buffer.

Sap2 [6] = test: 6.25 μg mL^−1 Sap2 in 1 mM NaPB; conditions: C. albicans, 37° C., up to 2 h
[7] = Candida albicans, isolated enzyme

T1 sequence (Q59SU1 18-520): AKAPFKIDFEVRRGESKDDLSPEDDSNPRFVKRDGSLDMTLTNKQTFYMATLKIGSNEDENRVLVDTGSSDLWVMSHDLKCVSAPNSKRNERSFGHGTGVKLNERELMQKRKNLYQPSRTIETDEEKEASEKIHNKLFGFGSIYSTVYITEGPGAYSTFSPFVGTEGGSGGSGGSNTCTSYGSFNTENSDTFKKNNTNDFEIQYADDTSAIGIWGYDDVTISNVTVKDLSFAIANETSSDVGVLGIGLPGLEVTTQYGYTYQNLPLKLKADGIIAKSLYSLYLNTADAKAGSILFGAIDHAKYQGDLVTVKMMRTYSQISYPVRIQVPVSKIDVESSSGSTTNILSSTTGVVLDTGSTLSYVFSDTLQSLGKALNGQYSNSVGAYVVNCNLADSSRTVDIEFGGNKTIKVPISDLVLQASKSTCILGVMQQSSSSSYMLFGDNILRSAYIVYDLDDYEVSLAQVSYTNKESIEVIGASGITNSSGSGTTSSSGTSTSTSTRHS

| Compound | mass spectrometry signal of intact peptide versus fragments, Sap9 (Sap9 [1]) | degradation by C. albicans cells (in words) [5] | degradation by Sap9 (in words) (Sap9 [3]) | degradation at higher Sap9 concentration (in words) (Sap9 [3]) | other results |
| --- | --- | --- | --- | --- | --- |
| C[C@H](NC(=O)[C@H](Cc1cnc[nH]1)NC(=O)[C@H](CO)NC(=O)[C@@H](N)CC(=O)O)C(=O)N[C@@H](CCCCN)C(=O)N[C@@H](CCCNC(=N)N)C(=O)N[C@@H](Cc1cnc[nH]1)C(=O)N[C@@H](Cc1cnc[nH]1)C(=O)NCC(=O)N[C@@H](Cc1ccc(O)cc1)C(=O)N[C@@H](CCCCN)C(=O)N[C@@H](CCCNC(=N)N)C(=O)N[C@@H](CCCCN)C(=O)N[C@@H](Cc1ccccc1)C(=O)N[C@@H](Cc1cnc[nH]1)C(=O)N[C@@H](CCC(=O)O)C(=O)N[C@@H](CCCCN)C(=O)N[C@@H](Cc1cnc[nH]1)C(=O)N[C@@H](Cc1cnc[nH]1)C(=O)N[C@@H](CO)C(=O)N[C@@H](Cc1cnc[nH]1)C(=O)N[C@@H](CCCNC(=N)N)C(=O)NCC(=O)N[C@@H](Cc1ccc(O)cc1)C(=O)O [Hst-5, reference compound] | signal for the degradation fragment containing amino acids 1-17 of Hst-5 was higher than the intact peptide |  |  |  | mass spectrometry signal of intact peptide versus fragments, Sap2 (Sap2 [2]): intact peptide having the highest signal; remaining at 2 h, 150 μg mL^−1 (Sap9 [3]; [7]): 47%; remaining at 2 h, 150 μg mL^−1 (Sap2 [4]; [7]): 61% |
| CC(C)C[C@H](NC(=O)[C@H](C)NC(=O)[C@H](Cc1c[nH]cn1)NC(=O)[C@H](CO)NC(=O)[C@@H](N)CC(=O)O)C(=O)N[C@@H](CCCNC(=N)N)C(=O)N[C@@H](Cc1c[nH]cn1)C(=O)N[C@@H](Cc1c[nH]cn1)C(=O)NCC(=O)N[C@@H](Cc1ccc(O)cc1)C(=O)N[C@@H](CCCCN)C(=O)N[C@@H](CCCNC(=N)N)C(=O)N[C@@H](CCCCN)C(=O)N[C@@H](Cc1ccccc1)C(=O)N[C@@H](Cc1c[nH]cn1)C(=O)N[C@@H](CCC(=O)O)C(=O)N[C@@H](CCCCN)C(=O)N[C@@H](Cc1c[nH]cn1)C(=O)N[C@@H](Cc1c[nH]cn1)C(=O)N[C@@H](CO)C(=O)N[C@@H](Cc1c[nH]cn1)C(=O)N[C@@H](CCCNC(=N)N)C(=O)NCC(=O)N[C@@H](Cc1ccc(O)cc1)C(=O)O [Peptide K5L] (H-DSHALRHHGYKRKFHEKHHSHRGY-OH; N-terminus and C-terminus assumed) |  | decrease in proteolysis | greater degradation than their arginine-substituted counterparts or parent Hst-5 | not intact |  |
| C[C@H](NC(=O)[C@H](Cc1c[nH]cn1)NC(=O)[C@H](CO)NC(=O)[C@@H](N)CC(=O)O)C(=O)N[C@@H](CCCNC(=N)N)C(=O)N[C@@H](CCCNC(=N)N)C(=O)N[C@@H](Cc1c[nH]cn1)C(=O)N[C@@H](Cc1c[nH]cn1)C(=O)NCC(=O)N[C@@H](Cc1ccc(O)cc1)C(=O)N[C@@H](CCCCN)C(=O)N[C@@H](CCCNC(=N)N)C(=O)N[C@@H](CCCCN)C(=O)N[C@@H](Cc1ccccc1)C(=O)N[C@@H](Cc1c[nH]cn1)C(=O)N[C@@H](CCC(=O)O)C(=O)N[C@@H](CCCCN)C(=O)N[C@@H](Cc1c[nH]cn1)C(=O)N[C@@H](Cc1c[nH]cn1)C(=O)N[C@@H](CO)C(=O)N[C@@H](Cc1c[nH]cn1)C(=O)N[C@@H](CCCNC(=N)N)C(=O)NCC(=O)N[C@@H](Cc1ccc(O)cc1)C(=O)O [Peptide K5R] (H-DSHARRHHGYKRKFHEKHHSHRGY-OH; N-terminus and C-terminus assumed) |  | no significant effect |  |  | intact peptide at higher Sap2 concentration (in words) (Sap2 [4]; 18 μg mL^−1 Sap2, 150 μg mL^−1 peptide, 2 h, 37° C.): no statistically significant amount of these peptides remained |
| C[C@H](NC(=O)[C@H](Cc1c[nH]cn1)NC(=O)[C@H](CO)NC(=O)[C@@H](N)CC(=O)O)C(=O)N[C@@H](CCCCN)C(=O)N[C@@H](CCCNC(=N)N)C(=O)N[C@@H](Cc1c[nH]cn1)C(=O)N[C@@H](Cc1c[nH]cn1)C(=O)NCC(=O)N[C@@H](Cc1ccc(O)cc1)C(=O)N[C@@H](CCCNC(=N)N)C(=O)N[C@@H](CCCNC(=N)N)C(=O)N[C@@H](CCCCN)C(=O)N[C@@H](Cc1ccccc1)C(=O)N[C@@H](Cc1c[nH]cn1)C(=O)N[C@@H](CCC(=O)O)C(=O)N[C@@H](CCCCN)C(=O)N[C@@H](Cc1c[nH]cn1)C(=O)N[C@@H](Cc1c[nH]cn1)C(=O)N[C@@H](CO)C(=O)N[C@@H](Cc1c[nH]cn1)C(=O)N[C@@H](CCCNC(=N)N)C(=O)NCC(=O)N[C@@H](Cc1ccc(O)cc1)C(=O)O [Peptide K11R] (H-DSHAKRHHGYRRKFHEKHHSHRGY-OH; N-terminus and C-terminus assumed) |  | did not show a significant difference in degradation of the peptide compared to Hst-5 | did not show a significant increase in resistance to the protease | significant reduction in degradation compared to Hst-5 |  |
| CC(C)C[C@H](NC(=O)[C@H](CCCNC(=N)N)NC(=O)[C@H](CCCCN)NC(=O)[C@H](Cc1ccc(O)cc1)NC(=O)CNC(=O)[C@H](Cc1c[nH]cn1)NC(=O)[C@H](Cc1c[nH]cn1)NC(=O)[C@H](CCCNC(=N)N)NC(=O)[C@H](CCCCN)NC(=O)[C@H](C)NC(=O)[C@H](Cc1c[nH]cn1)NC(=O)[C@H](CO)NC(=O)[C@@H](N)CC(=O)O)C(=O)N[C@@H](Cc1ccccc1)C(=O)N[C@@H](Cc1c[nH]cn1)C(=O)N[C@@H](CCC(=O)O)C(=O)N[C@@H](CCCCN)C(=O)N[C@@H](Cc1c[nH]cn1)C(=O)N[C@@H](Cc1c[nH]cn1)C(=O)N[C@@H](CO)C(=O)N[C@@H](Cc1c[nH]cn1)C(=O)N[C@@H](CCCNC(=N)N)C(=O)NCC(=O)N[C@@H](Cc1ccc(O)cc1)C(=O)O [Peptide K13L] (H-DSHAKRHHGYKRLFHEKHHSHRGY-OH; N-terminus and C-terminus assumed) | apparent shift in cleavage site preference compared to the parent Hst-5 | increase in degradation compared to the parent Hst-5 |  |  |  |
| DSHAKRHHGYKRKFHELHHSHRGY |  |  |  |  | cleaved bond (Sap2 [6]): L17-H18 |
